# Assay results reported in US20090169585A1, “Resveratrol-Containing Compositions And Their Use In Modulating Gene Product Concentration Or Activity” (Resveratrol Partners, LLC, priority 2003, published 2009).
# Read-outs that look alike come from different tables or passages of the source.
# Key:
# [1] = 2000 IU per day; cited from earlier work
# [2] = 3500 IU per day; cited from earlier work
# [3] = tested on: human umbilical vein epithelial cells; settings: of 10,000 genes probed; cited from earlier work
# injected tumors = settings: mice with injected tumors; cited from earlier work
# rhabdomyosarcoma cells = settings: low dosage; cited from earlier work
# [4] = tested on: genes involved in 220 biological processes; test: Biochemical pathways / biological processes affected (Table 5); format: in vivo, mice
# [5] = tested on: genes of the oxidative phosphorylation pathway (GO:0006119); test: Cardiac gene expression array: oxidative phosphorylation genes; format: in vivo, mice; settings: mouse cardiac tissue vs control
# [6] = tested on: expression of 20,341 genes in brain tissue; test: Gene expression in brain tissue; format: in vivo, mice
# breast cancer cells = settings: cited from earlier work
# [7] = 1100 IU, 4-year period; cited from earlier work
compound,measurement,setting,value
vitamin D,risk of colon cancer,[1],halved
same,risk for breast cancer,[2],halved
"O=c1c(O)c(-c2ccc(O)c(O)c2)oc2cc(O)cc(O)c12 [quercetin, 3,3′,4′,5,7-pentahydroxy-2-phenylchromen-4-one]",genes with greater than 2-fold down-regulation,[3],363 genes
same,genes with greater than 2-fold up-regulation,[3],233 genes
"O=P(O)(O)OC1C(OP(=O)(O)O)C(OP(=O)(O)O)C(OP(=O)(O)O)C(OP(=O)(O)O)C1OP(=O)(O)O (centres unmarked) [IP6, (2,3,4,5,6-pentaphosphonooxycyclohexyl) dihydrogen phosphate]",tumor size vs non-treated mice,injected tumors,50 times smaller
same,suppression of growth of rhabdomyosarcoma cells,rhabdomyosarcoma cells,50%
"Oc1ccc(/C=C/c2cc(O)cc(O)c2)cc1 [resveratrol, 3,4′,5-trihydroxy-trans-stilbene]",Genes changed: Telomere Maintenance,"[4]; GO: 0000723, 17 genes in series, P<0.05",3
same,Genes changed: Endochondral Ossification,"[4]; GO: 0001958, 8 genes in series, P<0.05",2
same,Genes changed: Carbohydrate Metabolic Process,"[4]; GO: 0005975, 316 genes in series, P<0.05",21
same,Genes changed: Polysaccharide Metabolic Process,"[4]; GO: 0005976, 42 genes in series, P<0.05",9
same,Genes changed: Glycogen Metabolic Process,"[4]; GO: 0005977, 31 genes in series, P<0.05",7
same,Genes changed: Generation Of Precursor Metabolites And Energy,"[4]; GO: 0006091, 390 genes in series, P<0.05",24
same,Genes changed: Energy Reserve Metabolic Process,"[4]; GO: 0006112, 35 genes in series, P<0.05",7
same,Genes changed: DNA Repair,"[4]; GO: 0006281, 178 genes in series, P<0.05",13
same,Genes changed: Transcription Termination,"[4]; GO: 0006353, 6 genes in series, P<0.05",2
same,Genes changed: Translation,"[4]; GO: 0006412, 338 genes in series, P<0.05",25
same,Genes changed: Translational Initiation,"[4]; GO: 0006413, 40 genes in series, P<0.05",6
same,Genes changed: Regulation Of Translational Initiation,"[4]; GO: 0006446, 20 genes in series, P<0.05",4
same,Number of genes affected: Protein Folding,"[4]; GO: 0006457, 124 genes in series, P<0.05",13
same,Genes changed: Ubiquitin-Dependent Protein Catabolic Process,"[4]; GO: 0006511, 109 genes in series, P<0.05",9
same,Genes changed: Ubiquitin Cycle,"[4]; GO: 0006512, 356 genes in series, P<0.05",27
same,Genes changed: Polyamine Biosynthetic Process,"[4]; GO: 0006596, 5 genes in series, P<0.05",2
same,Genes changed: Protein Targeting,"[4]; GO: 0006605, 161 genes in series, P<0.05",12
same,Genes changed: Protein Targeting To Peroxisome,"[4]; GO: 0006625, 5 genes in series, P<0.05",2
same,Genes changed: Copper Ion Transport,"[4]; GO: 0006825, 9 genes in series, P<0.05",3
same,Genes changed: Intracellular Protein Transport,"[4]; GO: 0006886, 357 genes in series, P<0.05",26
same,Genes changed: ER To Golgi Vesicle-Mediated Transport,"[4]; GO: 0006888, 16 genes in series, P<0.05",3
same,Genes changed: Caspase Activation,"[4]; GO: 0006919, 16 genes in series, P<0.05",3
same,Genes changed: Response To DNA Damage Stimulus,"[4]; GO: 0006974, 217 genes in series, P<0.05",15
same,Genes changed: ER Overload Response,"[4]; GO: 0006983, 5 genes in series, P<0.05",2
same,Number of genes affected: Organelle Organization And Biogenesis,"[4]; GO: 0006996, 897 genes in series, P<0.05",53
same,Number of genes affected: Cytoskeleton Organization And Biogenesis,"[4]; GO: 0007010, 403 genes in series, P<0.05",26
same,Genes changed: Microtubule-Based Process,"[4]; GO: 0007017, 155 genes in series, P<0.05",12
same,Number of genes affected: Microtubule-Based Movement,"[4]; GO: 0007018, 72 genes in series, P<0.05",9
same,Genes changed: Mitotic Metaphase/Anaphase Transition,"[4]; GO: 0007091, 8 genes in series, P<0.05",2
same,Genes changed: Female Meiosis,"[4]; GO: 0007143, 8 genes in series, P<0.05",2
same,Genes changed: Transmembrane Receptor Protein Serine/Threonine Kinase Signaling Pathway,"[4]; GO: 0007178, 75 genes in series, P<0.05",7
same,Genes changed: Small Gtpase Mediated Signal Transduction,"[4]; GO: 0007264, 320 genes in series, P<0.05",22
same,Number of genes affected: Regulation Of Actin Polymerization And/Or Depolymerization,"[4]; GO: 0008064, 30 genes in series, P<0.05",4
same,Genes changed: Protein Localization,"[4]; GO: 0008104, 663 genes in series, P<0.05",38
same,Number of genes affected: Actin Polymerization And/Or Depolymerization,"[4]; GO: 0008154, 39 genes in series, P<0.05",6
same,Genes changed: Isoprenoid Biosynthetic Process,"[4]; GO: 0008299, 19 genes in series, P<0.05",3
same,Genes changed: RNA Splicing,"[4]; GO: 0008380, 162 genes in series, P<0.05",12
same,Genes changed: Biosynthetic Process,"[4]; GO: 0009058, 979 genes in series, P<0.05",60
same,Genes changed: Macromolecule Biosynthetic Process,"[4]; GO: 0009059, 525 genes in series, P<0.05",35
same,Genes changed: Protein Transport,"[4]; GO: 0015031, 581 genes in series, P<0.05",38
same,Genes changed: Modification-Dependent Protein Catabolic Process,"[4]; GO: 0019941, 111 genes in series, P<0.05",9
same,Number of genes affected: Actin Filament Polymerization,"[4]; GO: 0030041, 17 genes in series, P<0.05",3
same,Number of genes affected: Regulation Of Actin Filament Length,"[4]; GO: 0030832, 31 genes in series, P<0.05",4
same,Genes changed: Cellular Response To Stress,"[4]; GO: 0033554, 14 genes in series, P<0.05",3
same,Genes changed: Positive Regulation Of Enzyme Activity,"[4]; GO: 0043085, 40 genes in series, P<0.05",5
same,Genes changed: Positive Regulation Of Caspase Activity,"[4]; GO: 0043280, 17 genes in series, P<0.05",3
same,Genes changed: Regulation Of Caspase Activity,"[4]; GO: 0043281, 27 genes in series, P<0.05",5
same,Genes changed: Cellular Biosynthetic Process,"[4]; GO: 0044249, 710 genes in series, P<0.05",45
same,Genes changed: Cellular Carbohydrate Metabolic Process,"[4]; GO: 0044262, 221 genes in series, P<0.05",18
same,Genes changed: Establishment Of Protein Localization,"[4]; GO: 0045184, 610 genes in series, P<0.05",38
same,Genes changed: Interferon Type I Biosynthetic Process,"[4]; GO: 0045351, 6 genes in series, P<0.05",2
same,Genes changed: Cell Redox Homeostasis,"[4]; GO: 0045454, 40 genes in series, P<0.05",6
same,Genes changed: Regulation Of B Cell Differentiation,"[4]; GO: 0045577, 8 genes in series, P<0.05",2
same,Genes changed: Positive Regulation Of JNK Cascade,"[4]; GO: 0046330, 8 genes in series, P<0.05",2
same,Number of genes affected: Intracellular Transport,"[4]; GO: 0046907, 523 genes in series, P<0.05",43
same,Genes changed: Golgi Vesicle Transport,"[4]; GO: 0048193, 37 genes in series, P<0.05",6
same,Genes changed: Epithelial Cell Proliferation,"[4]; GO: 0050673, 30 genes in series, P<0.05",4
same,Number of genes affected: Regulation Of Catalytic Activity,"[4]; GO: 0050790, 241 genes in series, P<0.05",21
same,Genes changed: Barbed-End Actin Filament Capping,"[4]; GO: 0051016, 17 genes in series, P<0.05",3
same,Number of genes affected: Protein Polymerization,"[4]; GO: 0051258, 32 genes in series, P<0.05",6
same,Number of genes affected: Establishment Of Cellular Localization,"[4]; GO: 0051649, 653 genes in series, P<0.05",45
same,biological processes with affected genes,[4]; resveratrol to calorie restricted mice,failed to affect any genes in any of these processes
same,share of the 220 biological processes with affected genes,"[4]; this treatment, P<0.05",10%
same,FC Cox4i2,[5],1.50
same,FC Ndufaf1,[5],−1.20
same,FC Ndufc1,[5],1.20
same,FC Ndufc2,[5],−1.30
same,FC Ndufs2,[5],1.10
same,number of genes exhibiting altered expression,"[6]; animals receiving only this treatment, P<0.01",424 genes
same,number of genes exhibiting altered expression,[6]; resveratrol and calorie reduced diet,10 genes
COc1cc(/C=C/C(=O)O)ccc1O [ferulic acid],genes with greater than 2-fold down-regulation,[3],363 genes
same,genes with greater than 2-fold up-regulation,[3],233 genes
"C=C1CC[C@H](O)C/C1=C/C=C1\CCC[C@]2(C)[C@@H]([C@H](C)CCCC(C)C)CC[C@@H]12 [vitamin D3, cholecalciferol]",reduction of the number of breast cancer cells,"breast cancer cells; higher concentrations of vitamin D3 alone, lab dish",about 25%
same,reduction of the number of breast cancer cells,breast cancer cells; higher concentrations of vitamin D3 combined with resveratrol,50%
same,breast tumor cell growth,breast cancer cells; low-dose vitamin D3 alone,does not reduce breast tumor cell growth
same,decline of tumor cell numbers,breast cancer cells; low-dose vitamin D3 combined with resveratrol,40%
same,reduction in cancer risk,[7],60-77%
